Bounds are passed on as bounds.

For one experiment, the target named is T1, Human CaV2.2 channels (Homo sapiens, UniProt Q00975).
T1 construct: expressed in transfected cells; Kir2.3 also stably co-expressed
T1 sequence (Q00975 whole entry): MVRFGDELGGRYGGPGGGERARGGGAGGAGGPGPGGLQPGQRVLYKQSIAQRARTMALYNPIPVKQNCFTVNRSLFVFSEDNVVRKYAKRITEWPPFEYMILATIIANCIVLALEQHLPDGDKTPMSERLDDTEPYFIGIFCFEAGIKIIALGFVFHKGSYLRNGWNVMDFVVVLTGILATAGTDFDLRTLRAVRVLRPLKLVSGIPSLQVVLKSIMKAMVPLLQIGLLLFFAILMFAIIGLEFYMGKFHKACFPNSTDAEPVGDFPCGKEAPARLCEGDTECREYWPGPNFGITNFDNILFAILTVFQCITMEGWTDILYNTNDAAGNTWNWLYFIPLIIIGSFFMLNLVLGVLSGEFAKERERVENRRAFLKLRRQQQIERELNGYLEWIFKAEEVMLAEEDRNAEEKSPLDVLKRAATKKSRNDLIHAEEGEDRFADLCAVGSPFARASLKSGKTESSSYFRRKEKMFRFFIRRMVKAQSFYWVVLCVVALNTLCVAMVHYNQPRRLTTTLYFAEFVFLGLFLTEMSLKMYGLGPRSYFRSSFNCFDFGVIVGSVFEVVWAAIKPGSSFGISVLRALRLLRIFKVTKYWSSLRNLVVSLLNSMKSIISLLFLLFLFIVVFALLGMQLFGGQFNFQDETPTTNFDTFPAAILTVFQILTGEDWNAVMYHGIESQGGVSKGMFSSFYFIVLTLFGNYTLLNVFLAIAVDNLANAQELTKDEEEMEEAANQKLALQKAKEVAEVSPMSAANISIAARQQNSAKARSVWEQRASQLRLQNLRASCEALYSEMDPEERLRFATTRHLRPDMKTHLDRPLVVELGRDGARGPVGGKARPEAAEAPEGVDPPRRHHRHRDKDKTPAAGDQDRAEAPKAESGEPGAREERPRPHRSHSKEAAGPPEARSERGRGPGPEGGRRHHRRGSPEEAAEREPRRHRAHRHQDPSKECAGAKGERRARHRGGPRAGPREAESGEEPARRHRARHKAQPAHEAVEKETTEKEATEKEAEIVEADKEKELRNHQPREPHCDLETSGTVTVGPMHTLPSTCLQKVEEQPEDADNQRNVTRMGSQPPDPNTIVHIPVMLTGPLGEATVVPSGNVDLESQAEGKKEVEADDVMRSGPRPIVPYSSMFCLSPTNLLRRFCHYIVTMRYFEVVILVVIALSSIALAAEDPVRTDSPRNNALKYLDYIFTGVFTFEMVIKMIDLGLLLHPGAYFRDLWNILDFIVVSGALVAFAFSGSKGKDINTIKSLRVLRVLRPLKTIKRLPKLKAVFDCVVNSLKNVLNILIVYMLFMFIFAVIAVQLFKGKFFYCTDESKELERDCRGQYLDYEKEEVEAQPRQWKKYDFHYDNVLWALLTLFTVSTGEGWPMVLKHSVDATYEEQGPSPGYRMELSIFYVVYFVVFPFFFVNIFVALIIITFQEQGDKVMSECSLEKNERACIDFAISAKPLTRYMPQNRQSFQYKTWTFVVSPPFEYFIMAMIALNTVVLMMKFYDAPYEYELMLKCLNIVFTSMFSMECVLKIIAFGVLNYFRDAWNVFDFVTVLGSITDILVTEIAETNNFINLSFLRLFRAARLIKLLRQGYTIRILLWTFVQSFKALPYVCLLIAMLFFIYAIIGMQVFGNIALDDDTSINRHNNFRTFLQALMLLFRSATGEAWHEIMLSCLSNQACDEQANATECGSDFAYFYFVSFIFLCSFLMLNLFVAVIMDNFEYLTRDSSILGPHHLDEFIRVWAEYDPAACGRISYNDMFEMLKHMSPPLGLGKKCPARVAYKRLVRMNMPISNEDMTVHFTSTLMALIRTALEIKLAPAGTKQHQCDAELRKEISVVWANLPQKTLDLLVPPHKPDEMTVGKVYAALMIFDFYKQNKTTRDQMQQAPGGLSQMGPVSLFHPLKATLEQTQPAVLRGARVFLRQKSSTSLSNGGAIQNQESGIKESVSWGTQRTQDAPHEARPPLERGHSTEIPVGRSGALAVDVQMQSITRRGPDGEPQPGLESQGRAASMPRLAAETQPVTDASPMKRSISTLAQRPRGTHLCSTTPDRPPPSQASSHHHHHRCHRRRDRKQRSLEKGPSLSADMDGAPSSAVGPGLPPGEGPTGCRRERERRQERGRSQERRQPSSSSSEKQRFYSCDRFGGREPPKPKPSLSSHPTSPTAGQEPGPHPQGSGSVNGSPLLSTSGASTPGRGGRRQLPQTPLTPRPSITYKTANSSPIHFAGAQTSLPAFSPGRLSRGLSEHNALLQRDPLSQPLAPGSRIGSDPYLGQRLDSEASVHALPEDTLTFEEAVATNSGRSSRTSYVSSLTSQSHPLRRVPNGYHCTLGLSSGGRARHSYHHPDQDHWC
As to the kind of experiment: Fluorescence assay for CaV2.2 channels using potassium depolarization to induce channel opening (FLIPR, Fluo 4). The class given is cell-based. Particulars: 3 μM test compound, 30 mM KCl assay buffer (inactivated channel state), HEK293 cells. Summed up:
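HEK293 cells stably co-expressing human CaV2.2 with α2δ and β subunits plus Kir2.3, Fluo-4 loaded; compounds preincubated 15 min at 25 °C in 1 mM or 30 mM KCl buffer (inactivated state), pH 7.4. Depolarized by KCl addition; baseline-normalized peak fluorescence (ex 480/em 535 nm) gave inhibition.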
Turning to `CC1(S(=O)(=O)c2cccc(C(F)(F)F)c2)CCOC(c2ccccc2S(C)(=O)=O)C1` (stereo not shown) [SC-222, 4-Methyl-2-(2-methylsulfonyl-phenyl)-4-[[3-(trifluoromethyl)phenyl]sulfonyl]-tetrahydro-pyran], the “Activity Category: %-Inhib (CaV2.2) @3 μM @30 mM KCl” value (shortened to “Activity Category: %-Inhib”) is “A (%-Inhibition >95%)”.

Take `CC1(S(=O)(=O)c2cccc(C(F)(F)F)c2)CCOC(c2ccccc2S(C)(=O)=O)C1` (stereo not shown) [SC-223, 4-Methyl-2-(2-methylsulfonyl-phenyl)-4-[[3-(trifluoromethyl)phenyl]sulfonyl]-tetrahydro-pyran]: the “Activity Category: %-Inhib” value is reported as “C (%-Inhibition >40% up to ≦75%)”. As to `Cc1cc(Cl)ccc1C1CC(C)(S(=O)(=O)c2cccc(C(F)(F)F)c2)CCO1` (stereo not shown) [SC-225, 2-(4-Chloro-2-methyl-phenyl)-4-methyl-4-[[3-(trifluoromethyl)phenyl]sulfonyl]-tetrahydro-pyran], the “Activity Category: %-Inhib” value is given as “A (%-Inhibition >95%)”. For `CCC1(S(=O)(=O)c2cccc(C(F)(F)F)c2)CCOC(c2ccc(Cl)cc2)C1` (stereo not shown) [SC-231, 2-(4-Chlorophenyl)-4-ethyl-4-[[3-(trifluoromethyl)phenyl]sulfonyl]-tetrahydro-pyran], the “Activity Category: %-Inhib” value was “B (%-Inhibition >75% up to ≦95%)”.

For the compound `CC1(S(=O)(=O)c2cccc(C(F)(F)F)c2)CCOC(c2ccc(C#N)cc2S(C)(=O)=O)C1` (stereo not shown) [SC-252, 3-Methylsulfonyl-4-[4-methyl-4-[[3-(trifluoromethyl)phenyl]sulfonyl]-tetrahydro-pyran-2-yl]-benzonitrile], the “Activity Category: %-Inhib” value was “B (%-Inhibition >75% up to ≦95%)”. Consider `Cc1cc(S(C)(=O)=O)ccc1C1CC(C)(S(=O)(=O)c2cccc(C(F)(F)F)c2)CCO1` (stereo not shown) [SC-254, 4-Methyl-2-(2-methyl-4-methylsulfonyl-phenyl)-4-[[3-(trifluoromethyl)phenyl]sulfonyl]-tetrahydro-pyran], for which the “Activity Category: %-Inhib” value is “A (%-Inhibition >95%)”. `CC1(S(=O)(=O)c2cccc(C(F)(F)F)c2)CCOC(c2ccc(C#N)c(S(C)(=O)=O)c2)C1` (stereo not shown) [SC-262, 2-Methylsulfonyl-4-[4-methyl-4-[[3-(trifluoromethyl)phenyl]sulfonyl]-tetrahydro-pyran-2-yl]-benzonitrile]: the “Activity Category: %-Inhib” value is “B (%-Inhibition >75% up to ≦95%)”. As for `CC1(S(=O)(=O)c2cccc(OC(F)(F)F)c2)CCOC(c2ccc(S(C)(=O)=O)c(F)c2)C1` (stereo not shown) [SC-266, 2-(3-Fluoro-4-methylsulfonyl-phenyl)-4-methyl-4-[[3-(trifluoromethyloxy)-phenyl]sulfonyl]-tetrahydro-pyran], the “Activity Category: %-Inhib” value is given as “A (%-Inhibition >95%)”.

For `CC1(S(=O)(=O)c2cccc(C(F)(F)F)c2)CCOC(c2ccc(S(C)(=O)=O)c(C#N)c2)C1` (stereo not shown) [SC-268, 2-Methylsulfonyl-5-[4-methyl-4-[[3-(trifluoromethyl)phenyl]sulfonyl]-tetrahydro-pyran-2-yl]-benzonitrile], the “Activity Category: %-Inhib” value is listed as “B (%-Inhibition >75% up to ≦95%)”.

Staying with this experiment, now noted: HEK293, 3 μM test compound, 30 mM KCl assay buffer (inactivated channel state), HEK293 cells; read-out: Activity Category: %-Inhib (CaV2.2) @3 μM @30 mM KCl.
Take `Cc1cc(Cl)ccc1C1CC(C)(S(=O)(=O)c2cccc(C(F)(F)F)c2)CCO1` (stereo not shown) [SC-224, 2-(4-Chloro-2-methyl-phenyl)-4-methyl-4-[[3-(trifluoromethyl)phenyl]sulfonyl]-tetrahydro-pyran]: the inhibition at 3 µM is 75 to 95%. Still for that read-out and setting: with `COc1cc(C2CC(C)(S(=O)(=O)c3cccc(C(F)(F)F)c3)CCO2)ccc1Cl` (stereo not shown) [SC-226, 2-(4-Chloro-3-methoxy-phenyl)-4-methyl-4-[[3-(trifluoromethyl)phenyl]sulfonyl]-tetrahydro-pyran] the figure was over 95%; with `CC1(S(=O)(=O)c2cccc(C(F)(F)F)c2)CCOC(c2ccc(F)c(Cl)c2)C1` (stereo not shown) [SC-228, 2-(3-Chloro-4-fluoro-phenyl)-4-methyl-4-[[3-(trifluoromethyl)phenyl]sulfonyl]-tetrahydro-pyran], over 95%; with `CCC1(S(=O)(=O)c2cccc(C(F)(F)F)c2)CCOC(c2ccc(Cl)cc2)C1` (stereo not shown) [SC-230, 2-(4-Chlorophenyl)-4-ethyl-4-[[3-(trifluoromethyl)phenyl]sulfonyl]-tetrahydro-pyran], over 95%. `CC1(S(=O)(=O)c2cccc(C(F)(F)F)c2)CCOC(c2ccc(C(F)(F)F)cc2S(C)(=O)=O)C1` (stereo not shown) [SC-232, 4-Methyl-2-[2-methylsulfonyl-4-(trifluoromethyl)-phenyl]-4-[[3-(trifluoromethyl)phenyl]sulfonyl]-tetrahydro-pyran]: the inhibition at 3 µM was over 95%. With `CC1(S(=O)(=O)c2cccc(C(F)(F)F)c2)CCOC(c2ccc(S(C)(=O)=O)c(C(F)(F)F)c2)C1` (stereo not shown) [SC-235, 4-Methyl-2-[4-methylsulfonyl-3-(trifluoromethyl)-phenyl]-4-[[3-(trifluoromethyl)phenyl]sulfonyl]-tetrahydro-pyran], the inhibition at 3 µM was over 95%. As for `CC1(S(=O)(=O)c2cccc(C(F)(F)F)c2)CCOC(c2ccc(Cl)c(S(C)(=O)=O)c2)C1` (stereo not shown) [SC-237, 2-(4-Chloro-3-methylsulfonyl-phenyl)-4-methyl-4-[[3-(trifluoromethyl)phenyl]sulfonyl]-tetrahydro-pyran], the inhibition at 3 µM is over 95%. As to `CC1(S(=O)(=O)c2cccc(C(F)(F)F)c2)CCOC(c2ccc(S(C)(=O)=O)c(Cl)c2)C1` (stereo not shown) [SC-239, 2-(3-Chloro-4-methylsulfonyl-phenyl)-4-methyl-4-[[3-(trifluoromethyl)phenyl]sulfonyl]-tetrahydro-pyran], the inhibition at 3 µM is over 95%. The same measure, in the same setting: with `CC1(S(=O)(=O)c2cccc(C(F)(F)F)c2)CCOC(c2ccc(S(C)(=O)=O)cc2F)C1` (stereo not shown) [SC-241, 2-(2-Fluoro-4-methylsulfonyl-phenyl)-4-methyl-4-[[3-(trifluoromethyl)phenyl]sulfonyl]-tetrahydro-pyran] the figure was over 95%; with `CC1(S(=O)(=O)c2cccc(C(F)(F)F)c2)CCOC(c2cc(Cl)cc(S(C)(=O)=O)c2)C1` (stereo not shown) [SC-243, 2-(3-Chloro-5-methylsulfonyl-phenyl)-4-methyl-4-[[3-(trifluoromethyl)phenyl]sulfonyl]-tetrahydro-pyran], over 95%; with `CC1(S(=O)(=O)c2cccc(C(F)(F)F)n2)CCOC(c2ccc(S(C)(=O)=O)c(F)c2)C1` (stereo not shown) [SC-245, 2-[[2-(3-Fluoro-4-methylsulfonyl-phenyl)-4-methyl-tetrahydro-pyran-4-yl]sulfonyl]-6-(trifluoromethyl)-pyridine], 40 to 75%.

For the compound `CC1(S(=O)(=O)c2cccc(C(F)(F)F)c2)CCOC(c2cc(S(C)(=O)=O)ccc2Cl)C1` (stereo not shown) [SC-247, 2-(2-Chloro-5-methylsulfonyl-phenyl)-4-methyl-4-[[3-(trifluoromethyl)phenyl]sulfonyl]-tetrahydro-pyran], the inhibition at 3 µM is over 95%. For the compound `CC1(S(=O)(=O)c2cccc(C(F)(F)F)c2)CCOC(c2ccc(C(F)(F)F)c(S(C)(=O)=O)c2)C1` (stereo not shown) [SC-249, 4-Methyl-2-[3-methylsulfonyl-4-(trifluoromethyl)-phenyl]-4-[[3-(trifluoromethyl)phenyl]sulfonyl]-tetrahydro-pyran], the inhibition at 3 µM is over 95%. For `CC1(S(=O)(=O)c2cccc(C(F)(F)F)c2)CCOC(c2ccc(C#N)cc2S(C)(=O)=O)C1` (stereo not shown) [SC-251, 3-Methylsulfonyl-4-[4-methyl-4-[[3-(trifluoromethyl)phenyl]sulfonyl]-tetrahydro-pyran-2-yl]-benzonitrile], the inhibition at 3 µM is over 95%.

Regarding `Cc1cc(S(C)(=O)=O)ccc1C1CC(C)(S(=O)(=O)c2cccc(C(F)(F)F)c2)CCO1` (stereo not shown) [SC-253, 4-Methyl-2-(2-methyl-4-methylsulfonyl-phenyl)-4-[[3-(trifluoromethyl)phenyl]sulfonyl]-tetrahydro-pyran], the inhibition at 3 µM lay in the range of 75 to 95%.

Turning to `CC1(S(=O)(=O)c2cccc(C(F)(F)F)c2)CCOC(c2ccc(S(C)(=O)=O)cc2C(F)(F)F)C1` (stereo not shown) [SC-255, 4-Methyl-2-[4-methylsulfonyl-2-(trifluoromethyl)-phenyl]-4-[[3-(trifluoromethyl)phenyl]sulfonyl]-tetrahydro-pyran], the inhibition at 3 µM was over 95%. Take `CC1(S(=O)(=O)c2cccc(C(F)(F)F)c2)CCOC(c2cc(C#N)cc(S(C)(=O)=O)c2)C1` (stereo not shown) [SC-257, 3-Methylsulfonyl-5-[4-methyl-4-[[3-(trifluoromethyl)phenyl]sulfonyl]-tetrahydro-pyran-2-yl]-benzonitrile]: the inhibition at 3 µM is 75 to 95%.

In the case of `CC1(S(=O)(=O)c2cccc(C(F)(F)F)c2)CCOC(c2ccc3c(c2)OC(F)(F)O3)C1` (stereo not shown) [SC-259, 2,2-Difluoro-5-[4-methyl-4-[[3-(trifluoromethyl)phenyl]sulfonyl]-tetrahydro-pyran-2-yl]-1,3-benzodioxole], the inhibition at 3 µM was over 95%. Regarding `CC1(S(=O)(=O)c2cccc(C(F)(F)F)c2)CCOC(c2ccc(C#N)c(S(C)(=O)=O)c2)C1` (stereo not shown) [SC-261, 2-Methylsulfonyl-4-[4-methyl-4-[[3-(trifluoromethyl)phenyl]sulfonyl]-tetrahydro-pyran-2-yl]-benzonitrile], the inhibition at 3 µM was over 95%. Same read-out and setting: then `CC1(S(=O)(=O)c2cccc(C(F)(F)F)c2)CCOC(c2ccc3c(c2)CCO3)C1` (stereo not shown) [SC-263, 5-[4-Methyl-4-[[3-(trifluoromethyl)phenyl]sulfonyl]-tetrahydro-pyran-2-yl]-2,3-dihydro-benzofuran], with over 95%. As for `CC1(S(=O)(=O)c2cccc(OC(F)(F)F)c2)CCOC(c2ccc(S(C)(=O)=O)c(F)c2)C1` (stereo not shown) [SC-265, 2-(3-Fluoro-4-methylsulfonyl-phenyl)-4-methyl-4-[[3-(trifluoromethyloxy)-phenyl]sulfonyl]-tetrahydro-pyran], the inhibition at 3 µM fell in the range of 75 to 95%. Same read-out and setting: then `CC1(S(=O)(=O)c2cccc(C(F)(F)F)c2)CCOC(c2ccc(S(C)(=O)=O)c(C#N)c2)C1` (stereo not shown) [SC-267, 2-Methylsulfonyl-5-[4-methyl-4-[[3-(trifluoromethyl)phenyl]sulfonyl]-tetrahydro-pyran-2-yl]-benzonitrile], with over 95%.

For the origin of these results see patent US9896440B2, “Aryl substituted heterocyclyl sulfones” (GRÜNENTHAL GMBH, priority 2014, dated 2018).
